Assay results as given in article PMC10005332, “It Takes Two to Tango, Part II: Synthesis of A-Ring Functionalised Quinones Containing Two Redox-Active Centres with Antitumour Activities” (Molecules, 2023).
Read-outs that look alike come from different tables or passages of the source.

Columns and labels:
B16 (murine melanoma) = assay: MTT cytotoxicity assay, B16; type: cell-based; settings: for IC50: Mus musculus, MTT, 72 h exposure, three independent experiments, read-out: Cytotoxic activity IC50 (95% CI) B16; for Selectivity index B16: ratio of cytotoxicity L929 / B16
Procedure: (§1) In this study, the IC50 was obtained in micromolar concentrations, using the colourimetric MTT (3-(4,5-dimethylthiazol-2-yl)-2,5-diphenyl tetrazolium bromide)) assay, and doxorubicin was used as the positive control. […] The activity against the non-tumoural murine fibroblast cell line L929 was also evaluated in order to study the cytotoxicity behaviour of each compound and to understand their respective relative selectivity. The selectivity index was obtained using the ratio of measured cytotoxicity between the L929 cell line and each of the cancer cell lines, and the results are presented in Table 2.
(§2) The in vitro cytotoxicity activity of the compounds was evaluated by the colorimetric MTT (3-(4,5-dimethylthiazol-2-yl)-2,5-diphenyl tetrazolium bromide)) assay using the following tumor cell lines: HCT-116 (colon carcinoma), PC3 (prostate), SNB-19 (glioblastoma), K-562 (myelogenous leukaemia), HL-60 (human promyelocytic leukaemia), B16 (murine melanoma), A549 (human lung carcinoma), KG1 (human acute myeloid leukaemia), and RAJI (human Burkitt’s lymphoma), which were provided by the National Cancer Institute (Bethesda, MD, USA). The L929 cell line (mouse fibroblast L cells NCTC clone 929) employed in this study as a control cell line was obtained from the American Type Culture Collection (Manassas, VA, USA). The cell lines (Table S4) were maintained in flasks containing RPMI 1640 or DMEM medium supplemented with 10% bovive fetal sérum, 100 U/mL penicillin, and 100 μg/mL streptomycin at 37 °C and in 5% CO2 atmosphere. The compounds tested were dissolved in DMSO. Doxorubicin served as the positive control. Cell treatments were performed with three replicates and the cells were mycoplasma free. After 72 h incubation, 100 μL of MTT solution (0.5 mg/mL) was added to each well, and the cells were incubated for 3 h. The supernatant was removed and 100 μL of DMSO was added and the absorbance at 595 nm was measured using Victor Nivo Multimode plate reader (PerkinElmer, Waltham, MA, USA). The absorbances obtained were used to calculate the IC50 values by nonlinear regression employing appropriate statistical software.
(§3) The in vitro cytotoxicity activity of compounds was evaluated by the colorimetric MTT (3-(4,5-dimethylthiazol-2-yl)-2,5-diphenyl tetrazolium bromide)) assay using tumor cell lines: HCT-116 (colon carcinoma), PC3 (prostate), SNB-19 (glioblastoma), K-562 (myelogenous leukaemia), HL-60 (human promyelocytic leukaemia), B16 (murine melanoma), A549 (human lung carcinoma), KG1 (human acute myeloid leukaemia) and RAJI (human Burkitt's lymphoma), which were provided by the National Cancer Institute (Bethesda, MD, USA). The L929 cell line (mouse fibroblast L cells NCTC clone 929) employed in this study as a control cell line was obtained from the American Type Culture […]
(§4) Collection (Manassas, VA, USA). Cell lines (Table 01) were maintained in flasks containing RPMI 1640 or DMEM medium supplemented with 10% bovive fetal sérum, 100 U/mL penicillin, and 100 μg/mL streptomycin at 37 °C and 5% CO2 atmosphere.
(§5) Compounds tested were dissolved in DMSO. Doxorubicin served as positive control. Cell treatments were performed with three replicates and cells were mycoplasma-free. After 72 h incubation, 100 μL of MTT solution (0.5 mg/mL) was added to each well, and cells were incubated for 3 h. The supernatant was removed and 100 μL of DMSO was added and the absorbance at 595 nm was measured using Victor Nivo Multimode plate reader

[1] = test system: HL60 (human pro-myelocytic leukaemia); assay: MTT cytotoxicity assay, HL60; type: cell-based; settings: for IC50: MTT, 72 h exposure, three independent experiments, read-out: Cytotoxic activity IC50 (95% CI) HL60; for Selectivity index HL60: ratio of cytotoxicity L929 / HL60
Procedure: as §1, §2, §3, §4, §5

[2] = test system: A549 (human lung carcinoma); assay: MTT cytotoxicity assay, A549; type: cell-based; settings: for IC50: Homo sapiens, A549, MTT, 72 h exposure, three independent experiments, read-out: Cytotoxic activity IC50 (95% CI) A549; for Selectivity index A549: ratio of cytotoxicity L929 / A549
Procedure: as §1, §2, §3, §4, §5

[3] = MTT cytotoxicity assay, L929 control line; type: cell-based, mouse; settings: mouse, L929 fibroblast cells (non-tumoral control line), 72 h exposure, read-out: Cytotoxic activity IC50 (95% CI) L929
Procedure: as §1, §2, §3, §4, §5

[4] = test system: K-562 (human chronic myeloid leukaemia); assay: MTT cytotoxicity assay, K-562; type: cell-based; settings: for IC50: Homo sapiens, K562, MTT, 72 h exposure, three independent experiments, read-out: Cytotoxic activity IC50 (95% CI) K-562; for Selectivity index K-562: ratio of cytotoxicity L929 / K-562
Procedure: as §1, §2, §3, §4, §5

[5] = test system: KG1 (human acute myeloid leukaemia); assay: MTT cytotoxicity assay, KG1; type: cell-based; settings: for IC50: Homo sapiens, MTT, 72 h exposure, three independent experiments, read-out: Cytotoxic activity IC50 (95% CI) KG1; for Selectivity index KG1: ratio of cytotoxicity L929 / KG1
Procedure: as §1, §2, §3, §4, §5

[6] = test system: HCT-116 (human colorectal carcinoma); assay: MTT cytotoxicity assay, HCT-116; type: cell-based; settings: for IC50: Homo sapiens, HCT-116, 72 h, MTT, 72 h exposure, three independent experiments, read-out: Cytotoxic activity IC50 (95% CI) HCT-116; for Selectivity index HCT-116: ratio of cytotoxicity L929 / HCT-116
Procedure: as §1, §2, §3, §4, §5

[7] = test system: PC3 (human prostate adenocarcinoma); assay: MTT cytotoxicity assay, PC3; type: cell-based; settings: for IC50: Homo sapiens, MTT, 72 h exposure, three independent experiments, read-out: Cytotoxic activity IC50 (95% CI) PC3; for Selectivity index PC3: ratio of cytotoxicity L929 / PC3
Procedure: as §1, §2, §3, §4, §5

[8] = test system: SNB-19 (human astrocytoma); assay: MTT cytotoxicity assay, SNB-19; type: cell-based; settings: for IC50: Homo sapiens, SNB-19, MTT, 72 h exposure, three independent experiments, read-out: Cytotoxic activity IC50 (95% CI) SNB-19; for Selectivity index SNB-19: ratio of cytotoxicity L929 / SNB-19
Procedure: as §1, §2, §3, §4, §5

[9] = test system: RAJI (human Burkitt’s lymphoma); assay: MTT cytotoxicity assay, RAJI; type: cell-based; settings: for IC50: Homo sapiens, Raji, 72 h, MTT, 72 h exposure, three independent experiments, read-out: Cytotoxic activity IC50 (95% CI) RAJI; for Selectivity index RAJI: ratio of cytotoxicity L929 / RAJI
Procedure: as §1, §2, §3, §4, §5

Compound | IC50 (B16 (murine melanoma)) [µM] | Selectivity index B16 (B16 (murine melanoma)) | IC50 ([1]; Homo sapiens, HL-60, 72 h) [µM] | IC50 [1] [µM] | Selectivity index HL60 [1] | IC50 [2] [µM] | Selectivity index A549 [2] | IC50 at 72 h [3] [µM] | IC50 [4] [µM] | Selectivity index K-562 [4] | IC50 [5] [µM] | Selectivity index KG1 [5] | IC50 [6] [µM] | Selectivity index HCT-116 [6] | IC50 [7] [µM] | Selectivity index PC3 [7] | IC50 [8] [µM] | Selectivity index SNB-19 [8] | IC50 [9] [µM] | Selectivity index RAJI [9]
CC1(C)OC2=C(C(=O)C(=O)c3ccccc32)C1n1cc(CNC2=CC(=O)c3cccc(OCc4ccccc4)c3C2=O)nn1 (stereo not shown) [Compound 19d, 3-(4-(((8-benzyloxy-1,4-dioxo-1,4-dihydronaphthalen-2-yl)amino)methyl)-1H-1,2,3-triazol-1-yl)-2,2-dimethyl-2,3-dihydronaphtho[1,2-b]furan-4,5-dione] | 0.93 | 2.5 | 0.3 | 0.34 | 6.7 | 1.11 | 2.1 | 2.29 | 1.04 | 2.2 | 2.94 | 0.8 | 0.53 | 4.3 | 1.23 | 1.9 | 0.76 | 3.0 | 1.26 | 1.8
CC1(C)OC2=C(CC1Cn1cc(CNC3=CC(=O)c4c(O)cccc4C3=O)nn1)C(=O)C(=O)c1ccccc12 (stereo not shown) [Compound 21b, 3-((4-(((5-hydroxy-1,4-dioxo-1,4-dihydronaphthalen-2-yl)amino)methyl)-1H-1,2,3-triazol-1-yl)methyl)-2,2-dimethyl-3,4-dihydro-2H-benzo[h]chromene-5,6-dione] | 3.94 | 0.5 | 2.23 |  | 0.9 | 1.68 | 1.2 | 2.07 | 4.13 | 0.5 | 3.01 | 0.7 | 1.64 | 1.3 | 3.85 | 0.5 | 4.24 | 0.5 | 2.01 | 1.0
O=C1C(=O)c2ccccc2C2=C1CC(Cn1cc(CNC3=CC(=O)c4cccc(OCc5ccccc5)c4C3=O)nn1)O2 (stereo not shown) [Compound 20d, 2-((4-(((8-benzyloxy-1,4-dioxo-1,4-dihydronaphthalen-2-yl)amino)methyl)-1H-1,2,3-triazol-1-yl)methyl)-2,3-dihydronaphtho[1,2-b]furan-4,5-dione] | 9.21 | 1.0 | 3.74 |  | 2.5 | 27.4 | 0.3 | 9.43 | 10.4 | 0.9 | 8.9 | 1.1 | 6.16 | 1.5 | 12.8 | 0.7 | 10.2 | 0.9 | 4.32 | 2.2
CC1(C)OC2=C(C(=O)C(=O)c3ccccc32)C1n1cc(CNC2=CC(=O)c3c(I)cccc3C2=O)nn1 (stereo not shown) [Compound 19a, 3-(4-(((5-iodo-1,4-dioxo-1,4-dihydronaphthalen-2-yl)amino)methyl)-1H-1,2,3-triazol-1-yl)-2,2-dimethyl-2,3-dihydronaphtho[1,2-b]furan-4,5-dione] | 1.87 | 0.6 | 0.44 |  | 2.8 | 2.56 | 0.5 | 1.21 | 1.21 | 1.0 | 1.37 | 0.9 | 1 | 1.2 | 3.65 | 0.3 | 0.99 | 1.2 | 2.02 | 0.6
O=C1C(=O)c2ccccc2C2=C1CC(Cn1cc(CNC3=CC(=O)c4c(I)cccc4C3=O)nn1)O2 (stereo not shown) [Compound 20a, 2-((4-(((5-iodo-1,4-dioxo-1,4-dihydronaphthalen-2-yl)amino)methyl)-1H-1,2,3-triazol-1-yl)methyl)-2,3-dihydronaphtho[1,2-b]furan-4,5-dione] | 4.19 | 1.3 | 2.84 |  | 2.0 | 15.3 | 0.4 | 5.59 | 5.56 | 1.0 | 25.3 | 0.2 | 5.47 | 1.0 | 9.79 | 0.6 | 8.5 | 0.7 | 2.8 | 2.0
CC1(C)OC2=C(CC1Cn1cc(CNC3=CC(=O)c4cccc(OCc5ccccc5)c4C3=O)nn1)C(=O)C(=O)c1ccccc12 (stereo not shown) [Compound 21d, 3-((4-(((8-benzyloxy-1,4-dioxo-1,4-dihydronaphthalen-2-yl)amino)methyl)-1H-1,2,3-triazol-1-yl)methyl)-2,2-dimethyl-3,4-dihydro-2H-benzo[h]chromene-5,6-dione] | 5.12 | 1.0 | 0.89 |  | 5.9 | 2.61 | 2.0 | 5.27 | 10.1 | 0.5 | 11.5 | 0.5 | 4.16 | 1.3 | 9.76 | 0.5 | 3.83 | 1.4 | 28.7 | 0.2
